Assay results from patent publication US20210189342A1, “COMPOSITIONS AND METHODS FOR MODULATING MONOCYTE AND MACROPHAGE INFLAMMATORY PHENOTYPES AND IMMUNOTHERAPY USES THEREOF” (Verseau Therapeutics, Inc., priority 2018, published 2021).

Assays:
Assay type in all cases: cell-based, human
CD48 = assay: siRNA dose response, CD48 mRNA knockdown, Dual-Glo Luciferase Assay; conditions: Hepa1-6 + reporter plasmid, 24 hr
Protocol: (§1) Dose response curves for siRNAs were generated in vitro using a variety of cell lines according to Table 4.
(§2) Briefly, cells were seeded in 96-well plates and reverse transfected with siRNA, Lipofectamine® 2000 (0.5 uL/well; ThermoFisher), and, in some cases, a reporter plasmid (50 ng/well). The reporter plasmid (psiCHECK™-2, Promega) encoded both firefly luciferase and the gene of interest fused to renilla luciferase; silencing of the gene of interest results in proportional silencing of renilla luciferase but leaves firefly luciferase unaffected as an internal control.
(§3) After 24 hr incubation at 37° C., mRNA knockdown was measured using an endpoint assay. For targets without a reporter plasmid, a branched DNA (bDNA) assay was performed according to the manufacturer's instructions (QuantiGene® Singleplex Gene Expression Assay, ThermoFisher) to measure both the target gene and GAPDH (housekeeping gene) mRNA. Data are plotted as siRNA concentration (nM) vs. remaining mRNA (ratio of target gene to GAPDH, normalized to mock siRNA-transfected cells). For targets with a reporter plasmid, a Dual-Glo® Luciferase Assay was performed according to the manufacturer's instructions (Promega) to measure firefly and renilla luciferase expression. Data are plotted as siRNA concentration (nM) vs. remaining mRNA (ratio of renilla to firefly luminescence, normalized to mock siRNA-transfected cells).
(§4) For all dose response curves, a 4-parameter logistic model was applied to determine the IC50 of each siRNA sequence (Table 5 and FIG. 2). Data shown in Table 5 and FIG. 2 represent the mean of quadruplicates, +/−standard deviation.

SIGLEC7 = assay: siRNA dose response, SIGLEC7 mRNA knockdown, Dual-Glo Luciferase Assay; conditions: Hepa1-6 + reporter plasmid, 24 hr
Protocol: as §1, §2, §3, §4

CD74 = assay: siRNA dose response, CD74 mRNA knockdown, bDNA Assay; conditions: THP-1, 24 hr
Protocol: as §1, §2, §3, §4

Substance	IC50 (CD48) [nM]	IC50 (SIGLEC7) [nM]	other results
XD-09720: siRNA targeting CD48 (sense 5'-cucuGGAAuuGcuacuGcudTsdT-3'; antisense 5'-AGcAGuAGcAAUUCcAGAGdTsdT-3'; as printed in the source, key not given here)	0.012		
XD-10602: siRNA targeting SIGLEC7 (sense 5'-guAAccGGAAGGAuuAcusa-3'; antisense 5'-dTAGuAAUCCUUCCGGUuACusu-3'; RNA with 2'-O-methyl and phosphorothioate modifications, case key not given here, as printed in the source, key not given here)		3.53	
XD-09226: siRNA targeting CD74 (sense 5'-cuGGAcAAAcuGAcAGucAdTsdT-3'; antisense 5'-AGACUGUcAGUUUGUCcAGdTsdT-3'; RNA with 2'-O-methyl and phosphorothioate modifications, case key not given here, as printed in the source, key not given here)			IC50 (CD74): 0.143 nM
XD-10601: siRNA targeting SIGLEC7 (sense 5'-gaGuAACcGGAAGgAuuasa-3'; antisense 5'-dTUAAUCCUUCCGGUuACUCusu-3'; RNA with 2'-O-methyl and phosphorothioate modifications, case key not given here, as printed in the source, key not given here)		0.127	
XD-10607: siRNA targeting SIGLEC7 (sense 5'-cgGGcAGGGAAuGauAuasa-3'; antisense 5'-dTUAuAUcAUUCCCUGCCCGusu-3'; as printed in the source, key not given here)		0.039	
XD-10604: siRNA targeting SIGLEC7 (sense 5'-ggAAGGAuuAcucgcuGasa-3'; antisense 5'-dTUcAGCGAGuAAUCCUUCCusu-3'; RNA with 2'-O-methyl and phosphorothioate modifications, case key not given here, as printed in the source, key not given here)		0.032	
XD-10606: siRNA targeting SIGLEC7 (sense 5'-ccGuGcAAGAGGGcAuGusa-3'; antisense 5'-dTAcAUGCCCUCUUGcACGGusu-3'; RNA with 2'-O-methyl and phosphorothioate modifications, case key not given here, as printed in the source, key not given here)		0.045	
XD-09721: siRNA targeting CD48 (sense 5'-cuAAccuGGuuuuauAcuudTsdT-3'; antisense 5'-AAGuAuAAAACcAGGUuAGdTsdT-3'; RNA with 2'-O-methyl and phosphorothioate modifications, case key not given here, as printed in the source, key not given here)	0.009		
XD-09729: siRNA targeting CD48 (sense 5'-uguuAuAcuuGccaAGucAdTsdT-3'; antisense 5'-UGACUUGGcAAGuAuAAcAdTsdT-3'; as printed in the source, key not given here)	0.015		
XD-10609: siRNA targeting SIGLEC7 (sense 5'-ggAAuGAuAuAAGcuGGasa-3'; antisense 5'-dTUCcAGCUuAuAUCAUUCCusu-3'; as printed in the source, key not given here)		0.059	
XD-09232: siRNA targeting CD74 (sense 5'-agcuAGAcAGAuccccGuudTsdT-3'; antisense 5'-AACGGGGAUCUGUCuAGCUdTsdT-3'; RNA with 2'-O-methyl and phosphorothioate modifications, case key not given here, as printed in the source, key not given here)			IC50 (CD74): 0.747 nM
XD-10605: siRNA targeting SIGLEC7 (sense 5'-ggAuuACucGcuGacGAusa-3'; antisense 5'-dTAUCGUcAGCGAGUAAUCCusu-3'; RNA with 2'-O-methyl and phosphorothioate modifications, case key not given here, as printed in the source, key not given here)		0.022	
XD-09723: siRNA targeting CD48 (sense 5'-uccAGAAAAucuAaGuAcudTsdT-3'; antisense 5'-AGuACUuAGAUUUUCUGGAdTsdT-3'; as printed in the source, key not given here)	0.03		
XD-09230: siRNA targeting CD74 (sense 5'-gacAAAccAAGucgGaacAdTsdT-3'; antisense 5'-UGUUCCGACUUGGUUUGUCdTsdT-3'; as printed in the source, key not given here)			IC50 (CD74): 0.196 nM
XD-09227: siRNA targeting CD74 (sense 5'-ggAAcuGGAGGAcccGucudTsdT-3'; antisense 5'-AGACGGGUCCUCcAGUUCCdTsdT-3'; RNA with 2'-O-methyl and phosphorothioate modifications, case key not given here, as printed in the source, key not given here)			IC50 (CD74): 0.583 nM
XD-09727: siRNA targeting CD48 (sense 5'-ccuGGcGAGucuGuAAAcudTsdT-3'; antisense 5'-AGUUuAcAGACUCGCcAGGdTsdT-3'; as printed in the source, key not given here)	0.046		
XD-09239: siRNA targeting CD74 (sense 5'-ggccAuGGuucAcauuAGAdTsdT-3'; antisense 5'-UCuAAUGUGAACcAUGGCCdTsdT-3'; as printed in the source, key not given here)			IC50 (CD74): 0.07 nM
XD-09231: siRNA targeting CD74 (sense 5'-aaAccAAGucGGAacAGcAdTsdT-3'; antisense 5'-UGCUGUUCCGACUUGGUUUdTsdT-3'; RNA with 2'-O-methyl and phosphorothioate modifications, case key not given here, as printed in the source, key not given here)			IC50 (CD74): 0.255 nM
XD-10603: siRNA targeting SIGLEC7 (sense 5'-cgGAAGGAuuAcucGcugsa-3'; antisense 5'-dTCAGCGAGuAAUCCUUCCGusu-3'; RNA with 2'-O-methyl and phosphorothioate modifications, case key not given here, as printed in the source, key not given here)		0.029	
XD-09235: siRNA targeting CD74 (sense 5'-ccAAuGuuuuccAcccAuAdTsdT-3'; antisense 5'-uAUGGGUGGAAAAcAUUGGdTsdT-3'; as printed in the source, key not given here)			IC50 (CD74): 0.245 nM
XD-09724: siRNA targeting CD48 (sense 5'-gaAuccAAAuuuAaAGGcAdTsdT-3'; antisense 5'-UGCCUUuAAAUUUGGAUUCdTsdT-3'; as printed in the source, key not given here)	0.055		
XD-09728: siRNA targeting CD48 (sense 5'-cuGGcGAGucuGuaAAcuAdTsdT-3'; antisense 5'-UagUUuAcAGACUCGCcAGdTsdT-3'; as printed in the source, key not given here)	0.032		
XD-09722: siRNA targeting CD48 (sense 5'-cuuucGAccAGAAgAuuGudTsdT-3'; antisense 5'-AcAAUCUUCUGGUCGAAAGdTsdT-3'; RNA with 2'-O-methyl and phosphorothioate modifications, case key not given here, as printed in the source, key not given here)	0.014		
XD-10600: siRNA targeting SIGLEC7 (sense 5'-agAGuAAccGGAAgCAuusa-3'; antisense 5'-dTAAUCCUUCCGGUUACUCUusu-3'; RNA with 2'-O-methyl and phosphorothioate modifications, case key not given here, as printed in the source, key not given here)		0.155	
XD-09224: siRNA targeting CD74 (sense 5'-gcGcGAccuuAucuccAAcdTsdT-3'; antisense 5'-GUUGGAGAuAAGGUCGCGCdTsdT-3'; as printed in the source, key not given here)			IC50 (CD74): 1.98 nM
XD-09726: siRNA targeting CD48 (sense 5'-acAAcuGuuAucugAAAcudTsdT-3'; antisense 5'-AGUUUcAGAuAAcAGUUGUdTsdT-3'; as printed in the source, key not given here)	0.017		
XD-10608: siRNA targeting SIGLEC7 (sense 5'-gcAGGGAAuGAuAuAAGcsa-3'; antisense 5'-dTGCUuAuAUcAUUCCCUGCusu-3'; as printed in the source, key not given here)		0.056	
XD-09725: siRNA targeting CD48 (sense 5'-cccAAGccuGucAucAAAAdTsdT-3'; antisense 5'-UUUUGAUGAcAGGCUUGGGdTsdT-3'; RNA with 2'-O-methyl and phosphorothioate modifications, case key not given here, as printed in the source, key not given here)	0.022		
